{
  "source": "paper PMC8577999",
  "about": "(Slas Discovery, 2021)",
  "format_in_all_cases": "cell-based, SARS-CoV-2",
  "key": {"[1]": {"tested_on": "SARS2-S UK variant (B.1.1.7)", "assay": "microbe, parasite or virus in culture", "details": "Severe acute respiratory syndrome coronavirus 2, read-out: UK IC50"}, "[2]": {"tested_on": "SARS2-S SA variant (B.1.351)", "assay": "microbe, parasite or virus in culture", "details": "Severe acute respiratory syndrome coronavirus 2, read-out: SA IC50"}, "SARS2-S N501Y-D614G": {"tested_on": "SARS2-S N501Y-D614G", "details": "read-out: N501Y-D614G IC50"}, "SARS2-S D614G": {"tested_on": "SARS2-S D614G", "details": "read-out: D614G IC50"}},
  "data": [
    {"compound": "CCCC[C@@H](C=O)NC(=O)[C@H](CC(C)C)NC(=O)OCc1ccccc1", "note": "[SR-914, calpeptin]", "values": [
      {"measurement": "IC50", "setting": "[1]", "result": 34.7, "unit": "nM"},
      {"measurement": "IC50", "setting": "[2]", "result": 6.58, "unit": "nM"},
      {"measurement": "IC50", "setting": "SARS2-S N501Y-D614G", "result": 8.98, "unit": "nM"},
      {"measurement": "IC50", "setting": "SARS2-S D614G", "result": 11.5, "unit": "nM"}
    ]}
  ]
}
